Measured values: publication PMC6429263, “Evolution and Antibacterial Evaluation of 8-Hydroxy-cycloberberine Derivatives as a Novel Family of Antibacterial Agents Against MRSA” (Molecules, 2019)
Where two headings read alike, the source gives them in different places.

Tests used:
MSSE ATCC 12228 = assay: MIC, agar dilution, MSSE ATCC 12228; format: cell-based, S. epidermidis; details: Staphylococcus epidermidis, ATCC12228
MSSE 16-5 = assay: MIC, agar dilution, MSSE 16-5 (clinical isolate); format: cell-based, S. epidermidis; details: Staphylococcus epidermidis
MRSA ATCC -BAA-976 = assay: MIC, agar dilution, MRSA ATCC-BAA-976 (clindamycin-resistant); format: cell-based; details: Staphylococcus aureus
MSSA 15 = assay: MIC, agar dilution, MSSA 15 (clinical isolate); format: cell-based, S. aureus; details: Staphylococcus aureus
[1] = system: drug-susceptible strains: MSSA, MSSE, S. saprophyticus, S. hominis; assay: MIC across the panel of drug-susceptible Gram-positive strains; format: cell-based; details: 18 h; drug-susceptible Gram-positive strains of Table 1; read-out: MICs (range over strains)
Source text: SAR study for antibacterial activity against drug-susceptible Gram-positive bacteria was initially carried out, taking Lev and compound 1 as reference drugs. […] Bacteria strains used in this study were from the ATCC collection and clinical isolates in Chinese hospitals. The influence of the methylenedioxy ring was explored first, and compounds 6 and 10 were created and tested.

MSSA 16-1 = assay: MIC, agar dilution, MSSA 16-1 (clinical isolate); format: cell-based, S. aureus; details: Staphylococcus aureus
MRSA 16-34 = assay: MIC, agar dilution, MRSA 16-34; format: cell-based; details: Staphylococcus aureus
VISA ATCC 700698 = assay: MIC, agar dilution, VISA ATCC 700698; format: cell-based; details: Staphylococcus aureus
MRSE 16-5 = assay: MIC, agar dilution, MRSE 16-5; format: cell-based, S. epidermidis; details: Staphylococcus epidermidis
MRSA ATCC-B AA-1708 = assay: MIC, agar dilution, MRSA ATCC-BAA-1708 (mupA positive); format: cell-based; details: Staphylococcus aureus
VISA ATCC 700699 = assay: MIC, agar dilution, VISA ATCC 700699; format: cell-based; details: Staphylococcus aureus
S.s ATCC 15305 = assay: MIC, agar dilution, S.s ATCC 15305; format: cell-based; details: Staphylococcus saprophyticus, ATCC15305
MRSE 13-3 = assay: MIC, agar dilution, MRSE 13-3; format: cell-based, S. epidermidis; details: Staphylococcus epidermidis
MRSA 13-18 = assay: MIC, agar dilution, MRSA 13-18; format: cell-based; details: Staphylococcus aureus
MRSA ATCC 43300 = assay: MIC, agar dilution, MRSA ATCC 43300; format: cell-based; details: Staphylococcus aureus
S.h ATCC 35982 = assay: MIC, agar dilution, S.h ATCC 35982; format: cell-based; details: Staphylococcus hominis, ATCC35982
MRSA 13-23 = assay: MIC, agar dilution, MRSA 13-23; format: cell-based; details: Staphylococcus aureus
MSSA ATCC 29213 = assay: MIC, agar dilution, MSSA ATCC 29213; format: cell-based, S. aureus; details: Staphylococcus aureus
Stability in whole blood = format: in vitro ADME, SD rat; details: for Rr (remaining ratio): whole blood, 37 °C
Protocol: Fresh blood was collected on the day of experiment from SD rats and pre-warmed in a water bath at 37 °C. 10 mM test compound or Ems stock solutions were prepared in DMSO, and then diluted with 45% MeOH/H2O to achieve 100 μM dosing solutions. Each dosing solution (2 μL) was incubated with 98 µL of blank blood at 37 °C in water bath for 0, 0.5, 1, 3, 7 and 24 h, respectively. At the end of incubation, for each sample, 100 μL water and 800 μL of stop solution (200 ng/mL tolbutamide plus 20 ng/mL buspirone in ACN) were immediately added to precipitate protein and centrifuge at 4,000 rpm for 20 min. An aliquot of supernatant (100 μL) was then extracted, mixed with 200 μL H2O and then shook at 800 rpm for about 10 min before submitting to LC-MS/MS analysis. The experiment was repeated two times.

[2] = MSSE 16-5, isolated from patients in China, read-out: MIC
[3] = MRSA ATCC-BAA-976, clindamycin-resistant S. aureus, read-out: MIC
[4] = MSSA 15, isolated from patients in China, read-out: MIC
[5] = MSSA 16-1, isolated from patients in China, read-out: MIC
[6] = VISA ATCC 700698, read-out: MIC
[7] = MRSA ATCC-BAA-1708, mupA positive (mupirocin resistance), read-out: MIC
[8] = VISA ATCC 700699, read-out: MIC
[9] = S. saprophyticus ATCC 15305, read-out: MIC
[10] = S. hominis ATCC 35982, read-out: MIC

Structure (SMILES) | MIC (MSSE ATCC 12228; MSSE ATCC 12228, read-out: MIC) | MIC (MSSE 16-5; [2]) | MIC (MRSA ATCC -BAA-976; [3]) | MIC (MSSA 15; [4]) | MIC [1] | MIC (MSSA 16-1; [5]) | MIC (MRSA 16-34; MRSA 16-34, read-out: MIC) | MIC (VISA ATCC 700698; [6]) | MIC (MRSE 16-5; MRSE 16-5, read-out: MIC) | MIC (MRSA ATCC-B AA-1708; [7]) | MIC (VISA ATCC 700699; [8]) | MIC (S.s ATCC 15305; [9]) | MIC (MRSE 13-3; MRSE 13-3, read-out: MIC) | MIC (MRSA 13-18; MRSA 13-18, read-out: MIC) | MIC (MRSA ATCC 43300; MRSA ATCC 43300, read-out: MIC) | MIC (S.h ATCC 35982; [10]) | MIC (MRSA 13-23; MRSA 13-23, read-out: MIC) | MIC (MSSA ATCC 29213; MSSA ATCC 29213, read-out: MIC) | further results
COc1ccc2c(c[n+]3ccc4cc5c(c6c(Cc7ccccc7)cc2c3c46)OCO5)c1O [13a, 1,2-Methylenedioxy-8-hydroxy-9-methoxy-13-benzylcycloberberine chloride] | 16 µg/mL | 8 µg/mL | 16 µg/mL | 16 µg/mL | 8 to 16 µg/mL | 8 µg/mL | 8 µg/mL | 8 µg/mL | 16 µg/mL | 8 µg/mL | 8 µg/mL | 8 µg/mL | 8 µg/mL | 16 µg/mL | 16 µg/mL | 8 µg/mL | 16 µg/mL | 8 µg/mL | –
COc1ccc2c(c[n+]3ccc4cc5c(c6c(Cc7ccc(Cl)cc7)cc2c3c46)OCO5)c1O [13e, 1,2-Methylenedioxy-8-hydroxy-9-methoxy-13-p-chlorobenzylcycloberberine chloride] | 8 µg/mL | 4 µg/mL | 4 µg/mL | 8 µg/mL | 2 to 8 µg/mL | 4 µg/mL | 4 µg/mL | 4 µg/mL | 4 µg/mL | 8 µg/mL | 8 µg/mL | 16 µg/mL | 64 µg/mL | 8 µg/mL | 8 µg/mL | 8 µg/mL | 8 µg/mL | 8 µg/mL | –
COc1ccc2c(c[n+]3ccc4cc5c(c6c(Cc7cccc(C)c7)cc2c3c46)OCO5)c1O [13h, 1,2-Methylenedioxy-8-hydroxy-9-methoxy-13-m-methylbenzylcycloberberine chloride] | 4 µg/mL | 2 µg/mL | 8 µg/mL | 4 µg/mL | 2 to 16 µg/mL | 4 µg/mL | 4 µg/mL | 4 µg/mL | 4 µg/mL | 4 µg/mL | 4 µg/mL | 16 µg/mL | 4 µg/mL | 8 µg/mL | 8 µg/mL | 8 µg/mL | 8 µg/mL | 4 µg/mL | –
COc1ccc2c(c[n+]3ccc4cc5c(c6c(Cc7ccccc7[N+](=O)[O-])cc2c3c46)OCO5)c1O [13p, 1,2-Methylenedioxy-8-hydroxy-9-methoxy-13-o-nitrobenzylcycloberberine chloride] | 8 µg/mL | 4 µg/mL | 8 µg/mL | 8 µg/mL | 4 to 16 µg/mL | 4 µg/mL | 4 µg/mL | 8 µg/mL | 8 µg/mL | 4 µg/mL | 4 µg/mL | 16 µg/mL | 32 µg/mL | 16 µg/mL | 8 µg/mL | 8 µg/mL | 8 µg/mL | 8 µg/mL | –
CCOC(=O)[C@H](CCc1ccccc1)N[C@@H](C)C(=O)N1CCC[C@H]1C(=O)O [Ems, enalapril] | – | – | – | – | – | – | – | – | – | – | – | – | – | – | – | – | – | – | stability in whole blood (Stability in whole blood): completely decomposed; Rr (remaining ratio) (Stability in whole blood; 0 h): 100%; Rr (remaining ratio) (Stability in whole blood; 0.5 h): 37.5%; Rr (remaining ratio) (Stability in whole blood; 1 h): 9.1%; Rr (remaining ratio) (Stability in whole blood; 3 h): 0%; Rr (remaining ratio) (Stability in whole blood; 7 h): 0%; Rr (remaining ratio) (Stability in whole blood; 24 h): 0%
COc1ccc2c(c[n+]3c4c2ccc2c5c(cc(c24)CC3)OCO5)c1O [compound 1, reference compound] | – | – | – | – | – | – | – | – | – | – | – | – | – | – | – | – | – | – | MIC (MSSE ATCC 12228): 0.5 µg/mL; MIC (MSSE 16-5): 0.5 µg/mL; MIC (MRSA ATCC -BAA-976): 1 µg/mL; MIC (MSSA 15; MSSA): 4 µg/mL; MIC (MSSA 16-1; MSSA): 1 µg/mL; MIC (MRSA 16-34; MRSA): 0.5 µg/mL; MIC (VISA ATCC 700698): 1 µg/mL; MIC (MRSE 16-5; MRSE): 0.5 µg/mL; MIC (MRSA ATCC-B AA-1708): 0.5 µg/mL; MIC (VISA ATCC 700699): 0.5 µg/mL; MIC (S.s ATCC 15305): > 64 µg/mL; MIC (MRSE 13-3; MRSE): > 64 µg/mL; MIC (MRSA 13-18; MRSA): 1 µg/mL; MIC (MRSA ATCC 43300): 0.5 µg/mL; MIC (S.h ATCC 35982): 1 µg/mL; MIC (MRSA 13-23; MRSA): 1 µg/mL; MIC (MSSA ATCC 29213): 0.5 µg/mL
